In patent publication US20230295145A1, “PYRROLIDINE DERIVATIVES AND METHODS OF USE” (Genentech, Inc., priority 2020, published 2023):
Like-named read-outs stand apart in the source and are kept apart here.

Key:
Format in all cases: cell-based
[1] = molecular target: T1, VHL (Homo sapiens, UniProt P40337); test: VHL HEK-293 BRET Assay (VHL NanoBRET Target Engagement Assay); settings: HEK 293 RT VHL-NanoLuc stable cells; read-out: IC50
T1 construct: expressed in transfected cells
Description: The VHL NanoBRET™ Target Engagement Assay analyzes the apparent affinity of test compounds for VHL in cells by competitive displacement of a VHL NanoBRET™ tracer reversibly bound to a NanoLuc® VHL fusion protein stably expressed in the cells.
Test compounds were transferred to the assay plate (384 Well White Non-Binding Corning Assay Plates (Corning-3574)) using an Echo 555 Liquid Handler (Labcyte) in 2.5 nL increments and, as appropriate, intermediate stock concentrations of compounds, in order to prepare a titration series. 50 nL of control compound (10 mM; parental unlabeled VHL antagonist; see structure below) and 50 nL of DMSO (negative control) were dispensed into the appropriate control wells. DMSO was backfilled to a final volume of 50 nL as required. 50 nl per well of 1 mM VHL NanoBRET™ Tracer in DMSO (NanoBRET™ Tracer-PEG2-590 (see structure below)) was transferred into each well using an Echo 555 (ultimately yielding a final concentration of 1 uM). HEK 293 RT VHL-NanoLuc® stable cells were cultured in DMEM High Glucose with Pyruvate, 10% fetal bovine serum, 2 mg/mL of Geneticin Selective Antibiotic (50 mg/mL) and 2 mM HEPES (1 M). Cells were seeded in Opti-MEM (Life Technologies-11058-021), 1.7×10^5 cells/mL, 40 μl per well into the assay plate, centrifuged at 500 rpm for 30 seconds and incubated for 2 hours. Max Signal control wells consisted of DMSO only treated wells. Minimum Signal control wells contained of 10 uM parental unlabeled VHL antagonist (control compound—see structure below). 3× Complete Substrate plus Inhibitor Solution was prepared in Opti-MEM (consists of a 1:166 dilution of NanoBRET™ Nano-Glo® Substrate plus a 1:500 dilution of Extracellular NanoLuc® Inhibitor in Opti-MEM), and 20 ul was dispensed into each well of the 384-well plate and centrifuged at 1000 rpm for 1 minute, then incubated for 2 minutes at room temperature. Background Signal control wells were prepared without tracer for background correction steps.
Plates were read using a PerkinElmer Envision Reader (model 2104-0020) equipped with Luminescence option (Mirror: BRET2 Enh (PE Barcode 659), Emission Filter: Omega 610LP (Barcode 504), 2nd Emission Filter: Umbelliferone 460 (Barcode 207), Measurement height: 6.5 mm, Measurement time: 1 s). The raw BRET ratio values were calculated by dividing the acceptor emission value (610 nm) by the donor emission value (460 nm) for each sample. To correct for background, the BRET ratio in the absence of tracer (average of no-tracer control samples) was subtracted from the BRET ratio of each sample. Raw BRET units were converted to milliBRET units (mBU) by multiplying each raw BRET value by 1,000. The normalized NanoBRET™ signal was calculated relative to the Max Signal control wells (DMSO treated control wells) and the Minimum Signal control wells. Percentage inhibition was calculated relative to the Minimum Signal control and Maximum Signal control wells. IC50 values were derived by four parameter curve fitting using the Robust method.

[2] = test system: ABC-1; test: Cell Viability Assay (CellTiter-Glo); settings: 5 days
Description: (§1) Cell lines were cultured in RPMI-1640, 5% fetal bovine serum, and 2 mM glutamine in a humidified incubator maintained at 37° C. with 5% CO2. Cells were assessed with a Vi-CELL Cell Viability Analyzer (Beckman Coulter; Brea, CA); viability of at least 90% was required for screening. A Multidropä Combi Reagent Dispenser (Thermo Scientific; Waltham, MA) was used to plate cells into Falcons^â 384-well, black, clear-bottom plates (Catalog No. 353962; Corning; Tewksbury, MA) using seeding densities previous determined to achieve approximately 80% confluence at the final time point of the assay. The compounds were prepared at 1000× in advance using an Echo 555 liquid handler (Labcyte; Sunnyvale, CA) and stored in −80° C. until the day of compound addition. On the following day, cells were treated with compounds at final assay concentration 1 uM and 10 uM using a Bravo Automated Liquid-Handling Platform (Agilent; Santa Clara, CA). After 5 days, 25 mL CellTiter-Glo^â reagent was added using a MultiFloä Microplate Dispenser (BioTek; Winooski, VT). Cell lysis was induced by mixing for 30 minutes on an orbital shaker; plates were then incubated at room temperature for 10 minutes to stabilize the luminescent signal. Luminescence was read by a 2104 EnVision^â Multilabel Plate Reader (PerkinElmer; Waltham, MA).
(§2) The data was processed using Genedata Screener^â, Version 15 (Genedata; Basel, Switzerland) to assess compound effects on viability. Compound treated wells were normalized to the median value of 14 DMSO control wells on the same 384 well plate.

[3] = molecular target: T1, VHL; test: VHL HEK-293 BRET Assay (VHL NanoBRET Target Engagement Assay); settings: IC50 values measured in the presence of digitonin; HEK 293 RT VHL-NanoLuc stable cells; read-out: IC50 + Digi (μM)*
[4] = test system: NCI-H23; test: Cell Viability Assay (CellTiter-Glo); settings: 5 days
Description: as §1, §2

[5] = test system: PANC-1; test: Cell Viability Assay (CellTiter-Glo); settings: 10 μM, 5 days
Description: as §1, §2

T1 sequence (P40337 whole entry): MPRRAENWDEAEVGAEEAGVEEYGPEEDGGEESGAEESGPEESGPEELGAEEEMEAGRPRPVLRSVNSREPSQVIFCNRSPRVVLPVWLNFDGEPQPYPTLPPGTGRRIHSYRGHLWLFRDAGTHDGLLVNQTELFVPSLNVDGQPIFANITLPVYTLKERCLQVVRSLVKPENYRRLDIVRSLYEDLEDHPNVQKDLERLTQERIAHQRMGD

| SMILES | IC50 [1] | IC50 [3] | Normalized viability % DMSO ([2]; 1 μM) | Normalized viability % DMSO ([4]; 1 μM) | Normalized viability % DMSO ([2]; 10 μM) | Normalized viability % DMSO ([4]; 10 μM) | Normalized viability % DMSO [5] |
| --- | --- | --- | --- | --- | --- | --- | --- |
| CC(C)(C)[C@@H](C(=O)N1C[C@H](O)C[C@H]1C(=O)NCC12CCCC(C1)C(=O)N2)n1cc(C2CC2)nn1 (stereo partly drawn) [Compound 110, (2S,4R)-1-[(2S)-2-(4-cyclopropyltriazol-1-yl)-3,3-dimethyl-butanoyl]-4-hydroxy-N-[(7-oxo-6-azabicyclo[3.2.1]octan-5-yl)methyl]pyrrolidine-2-carboxamide] |  |  |  | 18.9 % DMSO |  |  |  |
| CC(C)(C)[C@@H](C(=O)N1C[C@H](O)C[C@H]1C(=O)NC1CCc2c(Cl)cc(Cl)cc21)n1cc(C2CC2)nn1 (stereo partly drawn) [Compound 169, (2S,4R)-1-[(2S)-2-(4-cyclopropyltriazol-1-yl)-3,3-dimethyl-butanoyl]-N-(4,6-dichloroindan-1-yl)-4-hydroxy-pyrrolidine-2-carboxamide] | 1810 nM | 2.93 µM |  |  |  | 39.3 % DMSO |  |
| CN1CC(CCNC(=O)[C@@H]2C[C@@H](O)CN2C(=O)[C@@H](n2cc(C3CC3)nn2)C(C)(C)C)CC1=O (stereo partly drawn) [Compound 236, (2S,4R)-1-[(2S)-2-(4-cyclopropyltriazol-1-yl)-3,3-dimethyl-butanoyl]-4-hydroxy-N-[2-(1-methyl-5-oxo-pyrrolidin-3-yl)ethyl]pyrrolidine-2-carboxamide] |  |  |  | 18.7 % DMSO |  |  |  |
| CC(C)(C)[C@@H](C(=O)N1C[C@H](O)C[C@H]1C(=O)N[C@@H]1C[C@@H](c2ccccc2)Oc2ccccc21)n1cc(C2CC2)nn1 [Compound 343, (2S,4R)-1-[(2S)-2-(4-cyclopropyltriazol-1-yl)-3,3-dimethyl-butanoyl]-4-hydroxy-N-[(2S,4R)-2-phenylchroman-4-yl]pyrrolidine-2-carboxamide] | 15.6 nM | 0.0321 µM |  |  | 44.1 % DMSO |  |  |
| CC(C)(C)[C@@H](C(=O)N1C[C@H](O)C[C@H]1C(=O)NCCC1(O)CN(C(c2ccccc2)c2ccccc2)C1)n1cc(C2CC2)nn1 [Compound 449, (2S,4R)-N-[2-(1-benzhydryl-3-hydroxy-azetidin-3-yl)ethyl]-1-[(2S)-2-(4-cyclopropyltriazol-1-yl)-3,3-dimethyl-butanoyl]-4-hydroxy-pyrrolidine-2-carboxamide] | 802 nM | 2.17 µM |  |  |  | 43.4 % DMSO |  |
| CC(C)(C)[C@@H](C(=O)N1C[C@H](O)C[C@H]1C(=O)NC1CCN(c2ccc(Cl)c(Cl)c2)C1)n1cc(C2CC2)nn1 (stereo partly drawn) [Compound 463, (2S,4R)-1-[(2S)-2-(4-cyclopropyltriazol-1-yl)-3,3-dimethyl-butanoyl]-N-[1-(3,4-dichlorophenyl)pyrrolidin-3-yl]-4-hydroxy-pyrrolidine-2-carboxamide] | 3680 nM | 4.86 µM |  |  |  |  | 35.6 % DMSO |
| CNC(=O)[C@@H]1C[C@@H](O)CN1C(=O)[C@@H](n1cc(COc2ccccc2F)nn1)C(C)(C)C [Compound 729, (2S,4R)-1-[(2S)-2-[4-[(2-fluorophenoxy)methyl]triazol-1-yl]-3,3-dimethyl-butanoyl]-4-hydroxy-N-methyl-pyrrolidine-2-carboxamide] | 960 nM | 1.48 µM |  | 7.4 % DMSO | 35.8 % DMSO |  |  |
| CNC(=O)[C@@H]1C[C@@H](O)CN1C(=O)[C@@H](n1cc(-c2cnc(F)cc2C)nn1)C(C)(C)C [Compound 792, (2S,4R)-1-[(2S)-2-[4-(6-fluoro-4-methyl-3-pyridyl)triazol-1-yl]-3,3-dimethyl-butanoyl]-4-hydroxy-N-methyl-pyrrolidine-2-carboxamide] | 1920 nM | 2.46 µM |  |  | 13.9 % DMSO |  |  |
| CNC(=O)[C@@H]1C[C@@H](O)CN1C(=O)[C@@H](n1cc(Cn2cnc3cc(C)c(C)cc32)nn1)C(C)(C)C [Compound 914, (2S,4R)-1-[(2S)-2-[4-[(5,6-dimethylbenzimidazol-1-yl)methyl]triazol-1-yl]-3,3-dimethyl-butanoyl]-4-hydroxy-N-methyl-pyrrolidine-2-carboxamide] | 5460 nM | 3 µM |  |  |  | 44.5 % DMSO |  |
| Cn1c(CCNC(=O)[C@@H]2C[C@@H](O)CN2C(=O)[C@@H](n2cc(C3CC3)nn2)C(C)(C)C)nc2c(F)cccc21 [Compound 1131, (2S,4R)-1-[(2S)-2-(4-cyclopropyltriazol-1-yl)-3,3-dimethyl-butanoyl]-N-[2-(4-fluoro-1-methyl-benzimidazol-2-yl)ethyl]-4-hydroxy-pyrrolidine-2-carboxamide] |  |  |  | 21.7 % DMSO |  |  |  |

Second part, led by results:

| IC50 [1] | IC50 [3] | SMILES | Normalized viability % DMSO ([2]; 1 μM) | Normalized viability % DMSO ([4]; 1 μM) | Normalized viability % DMSO ([2]; 10 μM) | Normalized viability % DMSO ([4]; 10 μM) | Normalized viability % DMSO [5] |
| --- | --- | --- | --- | --- | --- | --- | --- |
| 2910 nM | 5.86 µM | CNC(=O)C1CC(O)CN1C(=O)[C@@H](n1cc(C2CCC(C(=O)OC)CC2)nn1)C(C)(C)C (stereo in doubt) [Compound 829, Methyl 4-[1-[(1S)-1-[(2R,4S)-4-hydroxy-2-(methylcarbamoyl)pyrrolidine-1-carbonyl]-2,2-dimethyl-propyl]triazol-4-yl]cyclohexanecarboxylate] | 10.6 % DMSO |  |  |  |  |
| 10 nM | 0.0142 µM | CC(C)(C)[C@@H](C(=O)N1C[C@H](O)C[C@H]1C(=O)NCc1ncc(-c2ccccc2)s1)n1cc(C2CC2)nn1 [Compound 140, (2S,4R)-1-[(2S)-2-(4-cyclopropyltriazol-1-yl)-3,3-dimethyl-butanoyl]-4-hydroxy-N-[(5-phenylthiazol-2-yl)methyl]pyrrolidine-2-carboxamide] |  |  | 45.3 % DMSO |  |  |
| 11.4 nM | 0.0152 µM | CC(C)(C)[C@@H](C(=O)N1C[C@H](O)C[C@H]1C(=O)NC(CO)c1ccc(Br)c(F)c1)n1cc(C2CC2)nn1 (stereo partly drawn) [Compound 174, (2S,4R)-N-[1-(4-bromo-3-fluoro-phenyl)-2-hydroxy-ethyl]-1-[(2S)-2-(4-cyclopropyltriazol-1-yl)-3,3-dimethyl-butanoyl]-4-hydroxy-pyrrolidine-2-carboxamide] |  |  | 50.7 % DMSO |  |  |
| 2340 nM | 3.18 µM | CCc1onc(C)c1CNC(=O)[C@@H]1C[C@@H](O)CN1C(=O)[C@@H](n1cc(C2CC2)nn1)C(C)(C)C [Compound 405, (2S,4R)-1-[(2S)-2-(4-cyclopropyltriazol-1-yl)-3,3-dimethyl-butanoyl]-N-[(5-ethyl-3-methyl-isoxazol-4-yl)methyl]-4-hydroxy-pyrrolidine-2-carboxamide] |  |  | 7.6 % DMSO |  |  |
| 3890 nM | 4.3 µM | CC(C)(C)[C@@H](C(=O)N1C[C@H](O)C[C@H]1C(=O)NCC1CCS(=O)(=O)c2ccccc21)n1cc(C2CC2)nn1 (stereo partly drawn) [Compound 420, (2S,4R)-1-[(2S)-2-(4-cyclopropyltriazol-1-yl)-3,3-dimethyl-butanoyl]-N-[(1,1-dioxo-3,4-dihydro-2H-thiochromen-4-yl)methyl]-4-hydroxy-pyrrolidine-2-carboxamide] |  | 10.8 % DMSO |  |  |  |
| 17200 nM | 22.2 µM | CC[S+]([O-])C1CCCCC1NC(=O)[C@@H]1C[C@@H](O)CN1C(=O)[C@@H](n1cc(C2CC2)nn1)C(C)(C)C (stereo partly drawn) [Compound 554, (2S,4R)-1-[(2S)-2-(4-cyclopropyltriazol-1-yl)-3,3-dimethyl-butanoyl]-N-(2-ethylsulfinylcyclohexyl)-4-hydroxy-pyrrolidine-2-carboxamide] |  |  | 38.2 % DMSO |  |  |
| 17300 nM | 2.33 µM | CC(C)(C)[C@@H](C(=O)N1C[C@H](O)C[C@H]1C(=O)NCCCn1cnc2c(N)ncnc21)n1cc(C2CC2)nn1 [Compound 1129, (2S,4R)-N-[3-(6-aminopurin-9-yl)propyl]-1-[(2S)-2-(4-cyclopropyltriazol-1-yl)-3,3-dimethyl-butanoyl]-4-hydroxy-pyrrolidine-2-carboxamide] |  |  | 4.2 % DMSO |  |  |
